Experimental data: PMC10004634 (PLOS ONE, 2023)
Read-outs that look alike come from different tables or passages of the source.

Key:
Test in all cases: biochemical
Set-up in all cases: KINOMEscan scanMAX competition binding, DNA-tagged kinases, qPCR read-out, percent control at 300 nM
MLCK = target: T1, MLCK (Homo sapiens, UniProt Q32MK0)
T1 construct: gene MYLK3
T1 sequence (Q32MK0 1-819): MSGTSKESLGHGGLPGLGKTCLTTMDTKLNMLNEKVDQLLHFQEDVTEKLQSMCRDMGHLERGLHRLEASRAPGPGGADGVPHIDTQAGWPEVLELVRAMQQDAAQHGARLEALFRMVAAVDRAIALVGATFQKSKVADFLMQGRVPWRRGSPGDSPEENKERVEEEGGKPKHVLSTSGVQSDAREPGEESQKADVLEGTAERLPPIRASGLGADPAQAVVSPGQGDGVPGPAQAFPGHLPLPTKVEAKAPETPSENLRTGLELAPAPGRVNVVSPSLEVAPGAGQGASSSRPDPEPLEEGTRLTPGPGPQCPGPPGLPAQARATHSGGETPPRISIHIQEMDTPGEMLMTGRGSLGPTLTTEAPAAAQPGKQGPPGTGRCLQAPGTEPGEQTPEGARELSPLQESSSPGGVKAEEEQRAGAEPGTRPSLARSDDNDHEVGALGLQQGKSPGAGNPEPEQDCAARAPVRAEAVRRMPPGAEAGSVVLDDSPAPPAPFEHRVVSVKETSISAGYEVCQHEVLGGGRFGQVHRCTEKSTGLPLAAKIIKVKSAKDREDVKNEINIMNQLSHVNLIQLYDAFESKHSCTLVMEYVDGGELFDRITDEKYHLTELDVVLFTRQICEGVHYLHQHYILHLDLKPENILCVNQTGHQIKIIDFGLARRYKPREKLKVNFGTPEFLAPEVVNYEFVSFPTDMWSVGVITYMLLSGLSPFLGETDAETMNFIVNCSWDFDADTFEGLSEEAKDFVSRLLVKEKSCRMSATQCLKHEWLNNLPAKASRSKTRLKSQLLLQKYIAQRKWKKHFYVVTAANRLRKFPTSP

MKNK1 = MKNK1 (Homo sapiens, UniProt Q9BUB5)
PIK3CA(Q546K) = PIK3CA(Q546K) (Homo sapiens, UniProt P42336, Q546K)
LATS1 = target: T2, LATS1 (Homo sapiens, UniProt O95835)
T2 sequence (O95835 1-1130): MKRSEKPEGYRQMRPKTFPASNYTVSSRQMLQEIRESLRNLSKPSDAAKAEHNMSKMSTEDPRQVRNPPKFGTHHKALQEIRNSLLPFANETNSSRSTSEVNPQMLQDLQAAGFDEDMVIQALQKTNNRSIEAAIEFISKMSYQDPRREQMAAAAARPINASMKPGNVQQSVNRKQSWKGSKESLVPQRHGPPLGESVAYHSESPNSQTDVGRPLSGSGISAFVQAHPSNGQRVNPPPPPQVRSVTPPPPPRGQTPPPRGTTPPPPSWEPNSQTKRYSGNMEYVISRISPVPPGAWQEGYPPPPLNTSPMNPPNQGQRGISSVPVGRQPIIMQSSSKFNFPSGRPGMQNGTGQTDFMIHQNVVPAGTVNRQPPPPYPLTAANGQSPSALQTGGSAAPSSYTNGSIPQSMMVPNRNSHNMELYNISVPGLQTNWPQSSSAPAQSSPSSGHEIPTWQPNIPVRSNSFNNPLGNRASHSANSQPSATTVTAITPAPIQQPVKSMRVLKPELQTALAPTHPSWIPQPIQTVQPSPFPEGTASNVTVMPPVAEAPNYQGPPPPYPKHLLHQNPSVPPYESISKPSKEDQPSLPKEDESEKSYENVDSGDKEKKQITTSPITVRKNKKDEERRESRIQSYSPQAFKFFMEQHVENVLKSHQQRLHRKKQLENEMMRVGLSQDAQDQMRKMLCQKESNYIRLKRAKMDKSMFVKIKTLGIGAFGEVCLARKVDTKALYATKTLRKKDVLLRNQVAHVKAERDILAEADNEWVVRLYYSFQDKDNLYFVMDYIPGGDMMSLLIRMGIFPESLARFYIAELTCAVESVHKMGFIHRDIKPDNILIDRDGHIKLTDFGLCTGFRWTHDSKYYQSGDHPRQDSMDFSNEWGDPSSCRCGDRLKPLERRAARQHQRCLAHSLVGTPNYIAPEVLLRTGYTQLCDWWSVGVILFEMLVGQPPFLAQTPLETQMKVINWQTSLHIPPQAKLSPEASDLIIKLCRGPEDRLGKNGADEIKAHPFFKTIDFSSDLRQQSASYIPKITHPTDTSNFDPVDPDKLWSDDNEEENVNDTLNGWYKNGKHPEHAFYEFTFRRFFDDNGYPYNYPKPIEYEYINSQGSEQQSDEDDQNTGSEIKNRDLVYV

MEK5 = target: T3, MEK5 (Homo sapiens, UniProt Q13163)
T3 construct: gene MAP2K5
T3 sequence (Q13163 1-448): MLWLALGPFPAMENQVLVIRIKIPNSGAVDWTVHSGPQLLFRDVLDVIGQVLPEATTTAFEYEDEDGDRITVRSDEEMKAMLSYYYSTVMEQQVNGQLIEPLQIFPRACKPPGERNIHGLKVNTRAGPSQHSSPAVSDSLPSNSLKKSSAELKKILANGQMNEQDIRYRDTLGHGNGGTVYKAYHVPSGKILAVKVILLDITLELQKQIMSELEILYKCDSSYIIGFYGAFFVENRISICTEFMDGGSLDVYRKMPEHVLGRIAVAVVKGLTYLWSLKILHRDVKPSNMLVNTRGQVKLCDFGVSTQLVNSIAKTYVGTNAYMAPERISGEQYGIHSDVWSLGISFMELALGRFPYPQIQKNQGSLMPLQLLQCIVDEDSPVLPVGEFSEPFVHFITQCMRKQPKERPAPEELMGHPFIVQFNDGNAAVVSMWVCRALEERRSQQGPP

[1] = read-out: Percent control / Acalabrutinib
[2] = read-out: Percent control / Ibrutinib
[3] = read-out: Percent control / Tirabrutinib
[4] = read-out: Percent control / Zanubrutinib

Sequence of PIK3CA(Q546K) (P42336 whole entry Q546K): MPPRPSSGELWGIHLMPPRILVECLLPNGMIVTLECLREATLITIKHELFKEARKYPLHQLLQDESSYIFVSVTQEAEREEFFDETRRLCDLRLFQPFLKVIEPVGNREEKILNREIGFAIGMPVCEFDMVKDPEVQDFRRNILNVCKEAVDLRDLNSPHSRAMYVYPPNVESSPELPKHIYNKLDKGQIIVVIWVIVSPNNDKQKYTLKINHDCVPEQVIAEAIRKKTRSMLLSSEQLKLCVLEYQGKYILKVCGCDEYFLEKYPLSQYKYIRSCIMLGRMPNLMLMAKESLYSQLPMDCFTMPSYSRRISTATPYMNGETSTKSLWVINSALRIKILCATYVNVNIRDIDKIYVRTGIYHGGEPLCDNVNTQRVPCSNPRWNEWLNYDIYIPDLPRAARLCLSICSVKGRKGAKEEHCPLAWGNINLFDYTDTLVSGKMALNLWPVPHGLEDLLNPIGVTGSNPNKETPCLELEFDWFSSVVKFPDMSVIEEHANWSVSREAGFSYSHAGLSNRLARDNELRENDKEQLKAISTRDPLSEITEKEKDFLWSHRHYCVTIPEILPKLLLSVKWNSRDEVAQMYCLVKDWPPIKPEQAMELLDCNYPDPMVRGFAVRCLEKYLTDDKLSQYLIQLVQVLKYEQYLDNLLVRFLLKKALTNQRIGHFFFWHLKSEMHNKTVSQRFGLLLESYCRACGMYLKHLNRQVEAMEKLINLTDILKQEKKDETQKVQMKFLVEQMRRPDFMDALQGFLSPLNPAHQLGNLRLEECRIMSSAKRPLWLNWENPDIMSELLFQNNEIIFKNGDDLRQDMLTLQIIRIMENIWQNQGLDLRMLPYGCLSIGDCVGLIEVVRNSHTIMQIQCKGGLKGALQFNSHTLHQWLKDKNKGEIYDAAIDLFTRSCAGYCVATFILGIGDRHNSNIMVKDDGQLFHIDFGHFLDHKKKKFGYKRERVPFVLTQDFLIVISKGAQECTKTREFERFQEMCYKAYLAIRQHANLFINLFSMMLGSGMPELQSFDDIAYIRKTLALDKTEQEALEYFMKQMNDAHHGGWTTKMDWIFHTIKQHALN
Sequence of MKNK1 (Q9BUB5 whole entry): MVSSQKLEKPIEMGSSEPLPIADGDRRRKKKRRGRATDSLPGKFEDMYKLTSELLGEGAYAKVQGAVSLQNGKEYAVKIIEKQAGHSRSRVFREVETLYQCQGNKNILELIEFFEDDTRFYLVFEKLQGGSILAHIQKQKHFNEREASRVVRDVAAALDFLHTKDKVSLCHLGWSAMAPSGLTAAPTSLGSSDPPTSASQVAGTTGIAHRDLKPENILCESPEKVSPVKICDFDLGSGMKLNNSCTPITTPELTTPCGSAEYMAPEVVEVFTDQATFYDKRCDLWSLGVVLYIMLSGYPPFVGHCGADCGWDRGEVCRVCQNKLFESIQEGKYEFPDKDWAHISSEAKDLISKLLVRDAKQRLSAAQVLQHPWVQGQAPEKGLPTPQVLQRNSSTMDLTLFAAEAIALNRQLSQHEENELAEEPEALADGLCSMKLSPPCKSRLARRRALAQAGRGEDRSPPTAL

Compound: CC#CC(=O)N1CCC[C@H]1c1nc(-c2ccc(C(=O)Nc3ccccn3)cc2)c2c(N)nccn12 [Acalabrutinib]
- remaining binding at 0.3 µM (MLCK; [1]): 94%
- remaining binding at 0.3 µM (MKNK1; [1]): 84%
- remaining binding at 0.3 µM (PIK3CA(Q546K); [1]): 88%
- remaining binding at 0.3 µM (LATS1; [1]): 79%
- remaining binding at 0.3 µM (MEK5; [1]): 71%

Compound: C=CC(=O)N1CCC[C@@H](n2nc(-c3ccc(Oc4ccccc4)cc3)c3c(N)ncnc32)C1 [Ibrutinib]
- remaining binding at 0.3 µM (MLCK; [2]): 79%
- remaining binding at 0.3 µM (MKNK1; [2]): 89%
- remaining binding at 0.3 µM (PIK3CA(Q546K); [2]): 62%
- remaining binding at 0.3 µM (LATS1; [2]): 83%
- remaining binding at 0.3 µM (MEK5; [2]): 0.6%

Compound: CC#CC(=O)N1CC[C@@H](n2c(=O)n(-c3ccc(Oc4ccccc4)cc3)c3c(N)ncnc32)C1 [Tirabrutinib]
- remaining binding at 0.3 µM (MKNK1; [3]): 87%
- remaining binding at 0.3 µM (PIK3CA(Q546K); [3]): 78%
- remaining binding at 0.3 µM (MEK5; [3]): 41%

Compound: C=CC(=O)N1CCC([C@@H]2CCNc3c(C(N)=O)c(-c4ccc(Oc5ccccc5)cc4)nn32)CC1 [Zanubrutinib]
- remaining binding at 0.3 µM (MLCK; [4]): 84%
- remaining binding at 0.3 µM (MKNK1; [4]): 100%
- remaining binding at 0.3 µM (PIK3CA(Q546K); [4]): 100%
- remaining binding at 0.3 µM (LATS1; [4]): 72%
